Here are results for two compounds from patent publication US20250186323A1, “COMPOSITION FOR SKIN WHITENING COMPRISING CARVEDILOL” (GMEX (GLOBAL MEDICAL XYNAPSE), priority 2020, published 2025).

One series has as its system MITF. Nature of the series: MITF mRNA expression in NHMs. The class given is cell-based, human.
The test system of series [1] is normal human melanocytes (NHMs). Nature of the series: Cell growth rate in normal human melanocytes treated with carvedilol. The class given is cell-based. As to conditions: cultured for 5 days (FIG. 1A). The protocol: (§1) NHMs were treated with carvedilol at each concentration of 2 μM, 4 μM, 6 μM, 8 μM and 10 μM, cultured for 5 days, and then a cell growth rate, melanogenesis activity, tyrosinase activity, and the expression of a melanin synthesis-related protein were confirmed.

The test system is the same in series [2]. Description: Melanin production (melanogenesis activity) in NHMs. The class given is cell-based. The following applies: carvedilol 2-10 μM, 5 days (FIG. 1B). How it is done: as §1
The test system of a further series is tyrosinase. Description: Tyrosinase activity in NHMs. The following applies: carvedilol 2-10 μM, 5 days (FIG. 1C). The class given is cell-based, human. How it is done:
as §1

Series [3] relates to melanin synthesis-related protein. Nature of the series: Expression of melanin synthesis-related protein in NHMs. The class given is cell-based, human. The following applies: according to carvedilol treatment time (FIG. 1D). The source says: […], and then a cell growth rate, melanogenesis activity, tyrosinase activity, and the expression of a melanin synthesis-related protein were confirmed.

The test system of series [4] is mouse melanocytes (mel-ab). Nature of the series: Cell growth rate in mouse melanocytes (mel-ab). The class given is cell-based. The following applies: up to 8 μM carvedilol (FIG. 2A). The source says: (§2) In addition to the result of Example 1 showing whitening activity in NHMs, the melanin inhibitory effect was confirmed by treating mouse melanocytes (mel-ab) with carvedilol.

Series [5] has as its system mouse melanocytes (mel-ab). Nature of the series: Melanin production in mouse melanocytes (mel-ab). As to conditions: carvedilol by concentration (FIG. 2B). The class given is cell-based.
Text: as §2

Series [6] has as its system cAMP/PKA/CREB signaling pathway. Description: Phospho-CREB and phospho-ERK expression in FSK-stimulated NHMs. The class given is cell-based, human. As to conditions: over time (FIG. 1D). The protocol: After NHMs were stimulated with FSK and treated with carvedilol, the expression levels of phospho-CREB and phospho-ERK were measured, and an intracellular signaling pathway which regulates MITF transcription was investigated.

The test system of another series is FSK-stimulated NHMs. Nature of the series: Melanin production in FSK-stimulated NHMs. The class given is cell-based, human. The following applies: NHMs after FSK treatment (FIG. 3A).
Series [7] relates to ex-vivo model of human skin tissue. Nature of the series: Ex-vivo human skin tissue model stimulated by UV irradiation. The source says:
To examine adaptation in actual clinical practice, an ex-vivo model of human skin tissue was stimulated by UV irradiation to induce melanin synthesis, and treated with carvedilol and cultured, and then a fragment was formed and subjected to Fontana-Masson staining.

Molecules are shown by their SMILES.

Consider `C=C[C@@]1(C)CC(=O)[C@]2(O)[C@@]3(C)[C@@H](O)CCC(C)(C)[C@@H]3[C@H](O)[C@H](OC(C)=O)[C@@]2(C)O1` [FSK], for which the MITF transcription result in the series on MITF (10 μM FSK for 2 hours (FIG. 3B)) is “maximally increased”.

For `COc1ccccc1OCCNCC(O)COc1cccc2[nH]c3ccccc3c12` (centres unmarked) [carvedilol], the cell growth rate entry was “slightly reduced” in [1] (10 μM carvedilol), “no effect” in series [1] (up to 8 μM carvedilol) and “no effect” in [4]. Besides, the melanin production result is listed as “inhibited” in series [2], “effect of inhibiting melanin production” in series [5] and “inhibits melanin production” in the series on FSK-stimulated NHMs. In the series with tyrosinase, the tyrosinase activity result is listed as “inhibited”. Further, in series [3], the “expression of a melanin synthesis-related protein” value is on record as “tends to decrease over time”. In addition, in series [6], the phospho-CREB expression entry is “reduced over time”. Moreover, in series [6], the phospho-ERK expression entry is “no change”. Further, the “mRNA level of MITF” value in the series with MITF (two hours after carvedilol treatment (FIG. 3C)) was “maximally decreased”. For the same compound, in [7] (UV-irradiated ex-vivo human skin, carvedilol treated (FIG. 4A)), the “melanosome level (Fontana-Masson staining)” value is recorded as “melanosome reduction”. The “melanin index (proportion of Fontana-Masson-stained region)” value in series [7] (UV-irradiated ex-vivo human skin, carvedilol treated (FIG. 4B)) was “decrease”. In addition, in series [7] (UV-irradiated ex-vivo human skin, increased by UVR (FIG. 4C)), the “melanin synthesis-related enzymes such as tyrosinase, TRP1 and DCT” value is listed as “reduced”. Further, in series [7] (ex-vivo human skin, compared to UVR alone (FIG. 4D)), the “number of Melan-A (+) cells (melanocytes)” value was “does not affect”. In addition, the “HMB45(+) melanocytes indicating melanocyte activity” value in series [7] (ex-vivo human skin, increased by UVR treatment (FIG. 4E)) is recorded as “reduced”.
